This is an account of results in patent publication US8048908B2, “11β-hydroxysteroid dehydrogenase type 1 active compounds” (High Point Pharmaceuticals, LLC, priority 2006, dated 2011).

One test addresses T1, h-11βHSD1 (Homo sapiens, UniProt P28845).
T1 construct: made in house
Kind of test: 11βHSD1 Enzyme Assay (scintillation proximity assay). Format: biochemical. Particulars: yeast extract expressing h-11βHSD1, 120 nM 3H-cortisone, 4 mM β-NADPH, 60 min at 30° C. The procedure: ^3H-cortisone and anti-rabbit Ig coated scintillation proximity assay (SPA) beads were purchased from Amersham Pharmacia Biotech, —NADPH was from Sigma and rabbit anti-cortisol antibodies were from Fitzgerald. An extract of yeast transformed with h-11βHSD1 (Hult et al., FEBS Lett., 441, 25 (1998)) was used as the source of enzyme. The test compounds were dissolved in DMSO (10 mM). All dilutions were performed in a buffer containing 50 mM TRIS-HCl (Sigma Chemical Co), 4 mM EDTA (Sigma Chemical Co), 0.1% BSA (Sigma Chemical Co), 0.01% Tween-20 (Sigma Chemical Co) and 0.005% bacitracin (Novo Nordisk A/S), pH=7.4. Optiplate 96 wells plates were supplied by Packard. The amount of ^3H-cortisol bound to the SPA beads was measured on Top-Count NXT, Packard.
h-11βHSD1, 120 nM ^3H-cortisone, 4 mM β-NADPH, antibody (1:200), serial dilutions of test compound and SPA particles (2 mg/well) were added to the wells. The reaction was initiated by mixing the different components and was allowed to proceed under shaking for 60 min at 30° C. The reaction was stopped be the addition of 10 fold excess of a stopping buffer containing 500 μM carbenoxolone and 1 μM cortisone. Data was analysed using GraphPad Prism software.

In another test the target is T2, 11βHSD1 (Homo sapiens, UniProt P28845).
T2 construct: host or cells: human subjects (in vivo)
Particulars: lean healthy volunteers and people with type 2 diabetes; cited from earlier work.

T1 sequence (P28845 whole entry): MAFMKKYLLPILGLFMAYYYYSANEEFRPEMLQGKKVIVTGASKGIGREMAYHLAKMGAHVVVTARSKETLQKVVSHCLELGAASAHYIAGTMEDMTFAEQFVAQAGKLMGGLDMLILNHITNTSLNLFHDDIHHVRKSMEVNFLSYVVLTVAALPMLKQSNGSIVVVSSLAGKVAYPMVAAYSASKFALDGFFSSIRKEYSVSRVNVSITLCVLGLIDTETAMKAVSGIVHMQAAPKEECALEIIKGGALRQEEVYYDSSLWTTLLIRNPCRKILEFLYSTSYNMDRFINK
T2 sequence (P28845 whole entry): as above

At h-11βHSD1, `CC1(C)CC2CC(C)(CN2C(=O)c2ccc(N3CCC(C(=O)NC4CCC(O)CC4)C3)cc2)C1` (stereo not shown) [Example 1-7, 1-[4-(1,3,3-Trimethyl-6-aza-bicyclo[3.2.1]octane-6-carbonyl)-phenyl]-pyrrolidine-3-carboxylic acid (4-hydroxy-cyclohexyl)-amide] returned an IC50 of 125 nM.

For the compound `CN(C(=O)C1CC1)C1CCN(c2ccc(C(=O)N3CC4CCC(CC4)C3)cc2)C1` (stereo not shown) [Example 1-31, Cyclopropanecarboxylic acid {1-[4-(3-aza-bicyclo[3.2.2]-nonane-3-carbonyl)-phenyl]-pyrrolidin-3-yl}-methyl-amide], the IC50 against h-11βHSD1 is 128 nM. This IC50 and that of the compound before are within 1.5-fold of each other.

With `CN(C1CCN(c2ccc(C(=O)N3CC4CCC(CC4)C3)cc2)C1)S(=O)(=O)Cc1ccccc1` (stereo not shown) [Example 1-33, N-{1-[4-(3-Aza-bicyclo[3.2.2]-nonane-3-carbonyl)-phenyl]-pyrrolidin-3-yl}-N-methyl-phenyl-methanesulfonamide], the IC50 at h-11βHSD1 amounted to 43 nM. Against the preceding compound, the IC50 is about 3-fold lower.

With `CC1(C)[C@@H](OC(=O)CCC(=O)O)CC[C@]2(C)[C@H]3C(=O)C=C4[C@@H]5C[C@@](C)(C(=O)O)CC[C@]5(C)CC[C@@]4(C)[C@]3(C)CC[C@@H]12` [carbenoxolone], the insulin sensitivity result on 11βHSD1 is “improves insulin sensitivity”.

In general, IC50 refers to the concentration at which inhibition is half-maximal. Higher therefore signals lower potency.
